Measured values taken from patent publication US8715731B2, “Process of reducing the bitter taste of water soluble actives by co-grinding the active with β cyclodextrin” (ISP Investments Inc., priority 2006, dated 2014).
Values after ≈ are worked out from the molar mass of the structure shown.

Assay: physchem
Settings: water
Method: The degree of formation of an inclusion complex between the drug and β-cyclodextrin was determined quantitatively by Differential Scanning Calorimetry (DSC).

NC(N)=Nc1nc(CSCCC(N)=NS(N)(=O)=O)cs1 [famotidine]
solubility: 1000 µg/mL (≈ 2960 µM)
